Reference: PMC6207370 (Xenobiotica; the fate of foreign compounds in biological …, 2017)
Values joined by “and” are separate entries in the source; they are usually repeats but may differ in a detail not shown here. Identical values can stand only once. Like-named read-outs stand apart in the source and are kept apart here. Marks after values point to notes of the source that are not given here.

Columns and labels:
Allometric scaling = assay: Allometric scaling; design: species or system human; conditions: for SSS Human Predicted S9 CLint: exponent 0.75
[1] = type: in vitro ADME
[2] = mouse; ref Hutzler JM, Cerny MA, Yang YS et al. (2014); cited from earlier work
[3] = rat; ref Hutzler JM, Cerny MA, Yang YS et al. (2014); cited from earlier work
[4] = cynomolgus monkey; ref Hutzler JM, Cerny MA, Yang YS et al. (2014); cited from earlier work
[5] = cited from earlier work
[6] = Incubations with rat hepatic S9
[7] = Incubations with human hepatic S9; conditions: for CLint scaled at 1 μM: both
[8] = Incubations with mouse hepatic S9
[9] = Incubations with minipig hepatic S9
[10] = Incubations with guinea pig hepatic S9
[11] = Incubations with rhesus monkey hepatic S9
[12] = Incubations with cynomolgus monkey hepatic S9
[13] = both, human, pH 7.4
[14] = male, CD-1, mouse, 1 μM, pH 7.4
[15] = male, Sprague-Dawley, rat, 1 μM, pH 7.4
[16] = male, Hartley, guinea pig, pH 7.4
[17] = male, cynomolgus monkey, pH 7.4
[18] = male, rhesus monkey, pH 7.4
[19] = male, Gottingen, minipig, 1 μM, pH 7.4
in vitro [20] = conditions: both, human
in vitro [21] = conditions: male, CD-1, mouse, s9, pH 7.4, CLint +NADPH
in vitro [22] = conditions: male, Sprague-Dawley, rat, s9, pH 7.4, CLint +NADPH
in vitro [23] = conditions: male, Hartley, guinea pig
in vitro [24] = conditions: male, cynomolgus monkey
in vitro [25] = conditions: male, rhesus monkey
in vitro [26] = conditions: male, Gottingen, minipig, s9, pH 7.4, CLint +NADPH

## CN1CCC(Nc2ncc3ncnc(Nc4ccc(F)c(Cl)c4)c3n2)CC1 [BIBX1382]
Allometric scaling; SSS from guinea pig
  fold-error of human S9 CLint predicted by SSS: outside of 3-fold-error
Allometric scaling; single-species scaling from cynomolgus monkey S9 CLint
  SSS Human Predicted S9 CLint: 88.7 mL/min/kg
Allometric scaling; single-species scaling from mouse S9 CLint
  SSS Human Predicted S9 CLint: 4.3 mL/min/kg
Allometric scaling; single-species scaling from rat S9 CLint
  SSS Human Predicted S9 CLint: 7.5 mL/min/kg
[1]; human, monkey, and minipig S9
  E (estimated hepatic extraction ratio), across species: 0.72 – 0.83
[2]
  CLp (plasma clearance): 55^¶ mL/min/kg
[3]
  CLp (plasma clearance): 55^¶ mL/min/kg
[4]
  CLp (plasma clearance): 118^¶ mL/min/kg
[5]; human, ref Hutzler JM, Cerny MA, Yang YS et al. (2014)
  CLp (plasma clearance): 25–55^¶ mL/min/kg
[6]; male, Sprague-Dawley, rat, s9, pH 7.4, CLint (intrinsic clearance) in hepatic S9, rat hepatic S9, in the presence of NADPH, Table 1, triplicate, 2–3 experiments
  CLint scaled at 1 μM: 30.7 ± 3.56 mL/min/kg
[6]; rat hepatic S9, method A (eq. 4)
  Fm,AO Method A (fraction metabolized by AO): 0.09
[6]; rat hepatic S9, method B (eq. 5), values > 1 assumed equal to 1
  Fm,AO Method B (fraction metabolized by AO): 0.69
[6]; rat hepatic S9, methods A and B taken together (data from Table 3)
  Fm,AO (fraction metabolized by AO): ≤ 0.69
[6]; rat hepatic S9 containing NADPH and hydralazine (50 μM)
  CLint +NADPH +Hyd: 25.1 ± 6.29 mL/min/kg
[6]; rat hepatic S9 containing NADPH, Table 3 data set, triplicate
  CLint +NADPH: 27.6 ± 0.995 mL/min/kg
[6]; rat, E = CLHEP/QH from hepatic S9 (+NADPH)
  E (estimated hepatic extraction ratio): 0.30
[6]; rat, well-stirred model from S9 CLint (+NADPH), uncorrected for fraction unbound
  CLHEP (hepatic clearance): 21.3 ± 1.73 mL/min/kg
[7]; human, s9, pH 7.4, CLint (intrinsic clearance) in hepatic S9, human hepatic S9, in the presence of NADPH, Table 1, triplicate, 2–3 experiments
  CLint scaled at 1 μM: 80.2 ± 9.61 mL/min/kg
[7]; human, s9, pH 7.4, CLint +NADPH +Hyd, human hepatic S9 containing NADPH and hydralazine (50 μM)
  CLint scaled at 1 μM: 5.83 ± 1.22 mL/min/kg
[7]; human, s9, pH 7.4, CLint −NADPH +Hyd, human hepatic S9 containing hydralazine (50 μM) without NADPH
  CLint scaled at 1 μM: 3.93 ± 1.75 mL/min/kg
[7]; human, s9, pH 7.4, CLint −NADPH, human hepatic S9 without NADPH
  CLint scaled at 1 μM: 69.6 ± 2.1 mL/min/kg
[7]; human hepatic S9, method A (eq. 4)
  Fm,AO Method A (fraction metabolized by AO): 0.92
[7]; human hepatic S9, method B (eq. 5), values > 1 assumed equal to 1
  Fm,AO Method B (fraction metabolized by AO): 0.92
[7]; human hepatic S9, methods A and B taken together (data from Table 3)
  Fm,AO (fraction metabolized by AO): 0.92
[7]; human, E = CLHEP/QH from hepatic S9 (+NADPH)
  E (estimated hepatic extraction ratio): 0.79
[8]; male, CD-1, mouse, s9, pH 7.4, CLint (intrinsic clearance) in hepatic S9, mouse hepatic S9, in the presence of NADPH, Table 1, triplicate, 2–3 experiments
  CLint scaled at 1 μM: 33.2 ± 7.1 mL/min/kg
[8]; mouse, E = CLHEP/QH from hepatic S9 (+NADPH)
  E (estimated hepatic extraction ratio): 0.27
[9]; male, Gottingen, minipig, s9, pH 7.4, CLint (intrinsic clearance) in hepatic S9, minipig hepatic S9, in the presence of NADPH, Table 1, triplicate, 2–3 experiments
  CLint scaled at 1 μM: 134 ± 5.69 mL/min/kg
[9]; minipig hepatic S9, method A (eq. 4)
  Fm,AO Method A (fraction metabolized by AO): 0.85
[9]; minipig hepatic S9, method B (eq. 5), values > 1 assumed equal to 1
  Fm,AO Method B (fraction metabolized by AO): 0.96
[9]; minipig, E = CLHEP/QH from hepatic S9 (+NADPH)
  E (estimated hepatic extraction ratio): 0.83
[10]; guinea pig hepatic S9, method A (eq. 4)
  Fm,AO Method A (fraction metabolized by AO): 0.65
[10]; guinea pig hepatic S9, method B (eq. 5), values > 1 assumed equal to 1
  Fm,AO Method B (fraction metabolized by AO): 0.73
[10]; guinea pig, E = CLHEP/QH from hepatic S9 (+NADPH)
  E (estimated hepatic extraction ratio): 0.54
[11]; rhesus monkey hepatic S9, method A (eq. 4)
  Fm,AO Method A (fraction metabolized by AO): 0.94
[11]; rhesus monkey hepatic S9, method B (eq. 5), values > 1 assumed equal to 1
  Fm,AO Method B (fraction metabolized by AO): 0.86
[11]; rhesus monkey, E = CLHEP/QH from hepatic S9 (+NADPH)
  E (estimated hepatic extraction ratio): 0.72
Single-species scaling; single-species scaling from literature cynomolgus monkey CLp
  SSS Human Predicted CLp: 56 mL/min/kg and 56.0 mL/min/kg
Single-species scaling; single-species scaling from literature mouse CLp
  SSS Human Predicted CLp: 7.2 mL/min/kg
Single-species scaling; single-species scaling from literature rat CLp
  SSS Human Predicted CLp: 13.4 mL/min/kg
[12]; cynomolgus monkey hepatic S9, method A (eq. 4)
  Fm,AO Method A (fraction metabolized by AO): 1
[12]; cynomolgus monkey hepatic S9, method B (eq. 5), values > 1 assumed equal to 1
  Fm,AO Method B (fraction metabolized by AO): 1^#
[12]; cynomolgus monkey hepatic S9, methods A and B taken together (data from Table 3)
  Fm,AO (fraction metabolized by AO): 1.0
[12]; cynomolgus monkey, E = CLHEP/QH from hepatic S9 (+NADPH)
  E (estimated hepatic extraction ratio): 0.80

## Nc1nc(OCc2ccccc2)c2[nH]cnc2n1 [O^6-benzylguanine]
Allometric scaling; SSS from minipig
  fold-error of human S9 CLint predicted by SSS: outside of 3-fold-error
[1]; all species except rat, mouse, and minipig
  Fm,AO, across species: ≥ 0.70
[1]; human, cynomolgus, and guinea pig hepatic S9
  E (estimated hepatic extraction ratio), across species: approximately 0.5
[1]; rat, mouse, minipig hepatic S9
  E (estimated hepatic extraction ratio), across species: approximately 0.1
[13]; 1 μM
  CLHEP (hepatic clearance): 9.62 ± 0.593 mL/min/kg
  E (estimated hepatic extraction ratio): 0.46
[13]; s9, 1 μM
  Fm,AO Method A (fraction metabolized by AO): 0.70
  Fm,AO Method B (fraction metabolized by AO): 0.83
[14]
  CLHEP (hepatic clearance): 16.6 ± 4.51 mL/min/kg
  E (estimated hepatic extraction ratio): 0.18
[15]
  CLHEP (hepatic clearance): 7.40 ± 1.61 mL/min/kg
  E (estimated hepatic extraction ratio): 0.11
[16]; 1 μM
  CLHEP (hepatic clearance): 30.3 ± 1.11 mL/min/kg
  E (estimated hepatic extraction ratio): 0.50
[16]; s9, 1 μM
  Fm,AO Method A (fraction metabolized by AO): 0.74
  Fm,AO Method B (fraction metabolized by AO): 0.83
[17]; 1 μM
  CLHEP (hepatic clearance): 21.4 ± 2.28 mL/min/kg
  E (estimated hepatic extraction ratio): 0.49
[17]; s9, 1 μM
  Fm,AO Method A (fraction metabolized by AO): 1
  Fm,AO Method B (fraction metabolized by AO): 0.94
[18]; 1 μM
  CLHEP (hepatic clearance): 15.0 ± 1.75 mL/min/kg
  E (estimated hepatic extraction ratio): 0.34
[18]; s9, 1 μM
  Fm,AO Method A (fraction metabolized by AO): 1
  Fm,AO Method B (fraction metabolized by AO): 1^#
[19]
  CLHEP (hepatic clearance): 3.79 ± 1.04 mL/min/kg
  E (estimated hepatic extraction ratio): 0.14
In vitro [20]; s9, pH 7.4, CLint +NADPH
  CLint scaled at 1 μM: 17.8 ± 3.05 mL/min/kg
In vitro [20]; s9, pH 7.4, CLint +NADPH +Hyd
  CLint scaled at 1 μM: 5.37 ± 1.16 mL/min/kg
In vitro [20]; s9, pH 7.4, CLint −NADPH
  CLint scaled at 1 μM: 14.8 ± 1.98 mL/min/kg
In vitro [21]
  CLint scaled at 1 μM: 15.5 ± 2.48 mL/min/kg
In vitro [22]
  CLint scaled at 1 μM: 6.59 ± 0.664 mL/min/kg
In vitro [23]; s9, pH 7.4, CLint +NADPH
  CLint scaled at 1 μM: 58.7 ± 4.65 mL/min/kg
In vitro [23]; s9, pH 7.4, CLint +NADPH +Hyd
  CLint scaled at 1 μM: 15 ± 2.14 mL/min/kg
In vitro [23]; s9, pH 7.4, CLint −NADPH
  CLint scaled at 1 μM: 48.7 ± 5.15 mL/min/kg
In vitro [24]; s9, pH 7.4, CLint +NADPH
  CLint scaled at 1 μM: 35.6 ± 5.1 mL/min/kg
In vitro [24]; s9, pH 7.4, CLint −NADPH
  CLint scaled at 1 μM: 33.5 ± 3.84 mL/min/kg
In vitro [25]; s9, pH 7.4, CLint +NADPH
  CLint scaled at 1 μM: 19.5 ± 2.05 mL/min/kg
In vitro [25]; s9, pH 7.4, CLint −NADPH
  CLint scaled at 1 μM: 21.3 ± 1.52 mL/min/kg
In vitro [26]
  CLint scaled at 1 μM: 4.68 ± 2.2 mL/min/kg
[5]; i.v., ref Dolan ME, Roy SK, Fasanmade AA, et al. (1998)
  Human Plasma Clearance: 14.5^# mL/min/kg
